The target of one data set is hlgG1 (Homo sapiens, UniProt P01857). Conditions: interacting with hlgG1; Reese et al., 2020; cited from earlier work.
The next data set has as its system bevacizumab. Description: Bio-layer interferometry binding of immobilized Fc-ligands to bevacizumab. Conditions: biotinylated peptide immobilized at 100 nM on SAX biosensors. Here is the method: (§1) Binding kinetic measurements were performed on the Octet RED96 system (ForteBio, CA) using single-use high-precision streptavidin biosensors (SAX). Assay buffer was defined as 1×PBS comprising 0.05% Tween-20 (PBST). Biotinylated peptides FcL-1 and FcL-2 were immobilized at 100 nM. Non-specific interactions were minimized by including a blocking step using SuperBlock prior to each baseline response. […] A double-referencing experiment was used to assess the binding interactions of Fc-noggin to both peptides. Peptides were immobilized in sample sensors while reference sensors were dipped in assay buffer. For association, the sample and reference sensors were dipped into Fc-noggin. All experiments included one biosensor dipped in assay buffer during association for background normalization.
(§2) Affinity interactions of the modified peptide ligands to different antibodies were evaluated via bio-layer interferometry. […] Dissociation constants between the binding pairs were determined using the Octet Data Analysis Software. […] A heterogeneous 2:1 ligand binding model was used for the evaluation of the equilibrium dissociation constants of the chosen peptide ligands to anti-sFRP2 or Fc-Noggin.
(In general: Biolayer interferometry detects binding as a change in optical thickness at a sensor tip.)

For another data set, the system named is panitumumab. The experiment in a line: Bio-layer interferometry binding of immobilized Fc-ligands to panitumumab. The note with it: biotinylated peptide immobilized at 100 nM on SAX biosensors. Here is the method:
as §1, §2

The subject of the next data set is anti-sFRP2. Description: Bio-layer interferometry binding of immobilized Fc-ligands to anti-sFRP2. The note with it: biotinylated peptide immobilized at 100 nM on SAX biosensors. Here is the method:
as §1, §2

The target in another data set is T1, Fc-Noggin (Mus musculus, UniProt P97466).
T1 construct: Fc (immunoglobulin Fc region); purchased R&D systems
Description: Bio-layer interferometry binding of immobilized Fc-ligands to Fc-Noggin. The note with it: biotinylated peptide immobilized at 100 nM on SAX biosensors. As to the method: as §1, §2

Data set [1] in a line: In vitro controlled release of proteins from HAKT-oxime gels, quantified by ELISA. Type of data set: physicochemical. The note with it: for cumulative release: after 2 days. (An ELISA detects its analyte on a solid surface through an enzyme-linked reagent.)
Description: HAKT and HAKT-FcL-1 were dissolved in PBS to yield a final HA content of 12.5 mg/mL with 0 or 100 molar excesses of peptide to protein and mixed with PEGOA4 at 80 mol %. […] Release media was defined as 1×PBS comprising 0.1 wt % bovine serum albumin and Roche cOmplete™ Protease Inhibitor Cocktail (1 tablet/ 10 mL, Roche, Switzerland). Protein release was evaluated by incubating HAKT-oxime gels with 400 μL of release media on an orbital shaker at 37° C. Supernatants were collected and replaced with fresh release media after 2 h, 6 h, 1 d, 2 d, 3 d, 5 d, and 7 d. HAKT-oxime hydrogels were digested after the last time point using 500 IU/mL hyaluronidase in 400 μL of PBS. Fc-Noggin concentrations were evaluated using a mouse Noggin ELISA (RayBiotech).
Subsequently, the wells were washed with 200 μL TPBS (1× PBS with 0.05% Tween 20) four times and blotted dry on paper towels. Standard and analyte samples were added to each well (100 μL) and incubated for 2.5 h at room temperature on an orbital shaker. The wells were then washed as previously described and blotted dry. […] 100 μL of anti-Fc antibody diluted at appropriate concentrations was added to each well and incubated for 1.5 h at room temperature. A solution of 3,3′,5,5′-Tetramethylbenzidine (TMB) was added (100 ul) to each well. […] Then, a stop solution comprising 2N H2SO4 (50 μL) was added to each well and the absorbance was measured at 450 nm. Protein concentration was determined using the linear range in the standard curve. Protein samples were diluted to fit within the linear range.

T1 sequence (P97466 with tags, fused parts or gaps): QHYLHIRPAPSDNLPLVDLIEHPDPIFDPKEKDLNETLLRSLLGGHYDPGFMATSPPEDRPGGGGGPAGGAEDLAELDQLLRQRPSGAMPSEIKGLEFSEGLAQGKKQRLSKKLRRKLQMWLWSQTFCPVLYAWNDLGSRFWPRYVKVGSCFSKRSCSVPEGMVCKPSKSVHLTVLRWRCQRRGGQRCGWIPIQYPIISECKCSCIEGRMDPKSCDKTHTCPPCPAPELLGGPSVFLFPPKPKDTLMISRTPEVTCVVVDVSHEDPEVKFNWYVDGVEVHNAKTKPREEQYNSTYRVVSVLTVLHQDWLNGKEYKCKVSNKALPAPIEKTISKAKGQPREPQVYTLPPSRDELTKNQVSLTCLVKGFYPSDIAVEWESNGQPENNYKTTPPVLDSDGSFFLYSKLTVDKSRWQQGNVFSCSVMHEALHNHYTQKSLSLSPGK
Sequence of hlgG1 (P01857 1-328 limits assumed): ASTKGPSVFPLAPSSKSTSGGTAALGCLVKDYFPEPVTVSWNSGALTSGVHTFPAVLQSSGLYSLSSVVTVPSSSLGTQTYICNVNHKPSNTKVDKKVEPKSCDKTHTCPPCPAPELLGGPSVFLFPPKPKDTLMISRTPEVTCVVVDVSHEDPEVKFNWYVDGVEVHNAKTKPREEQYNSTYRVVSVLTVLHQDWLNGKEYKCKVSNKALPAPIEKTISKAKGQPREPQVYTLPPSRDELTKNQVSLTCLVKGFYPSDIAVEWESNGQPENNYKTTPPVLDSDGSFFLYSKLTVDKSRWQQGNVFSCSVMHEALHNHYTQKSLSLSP

A word on the Kd: it is the constant that tells how readily two partners part at equilibrium. Regarding HWRWGV, the Kd at hlgG1 was 14.2 µM.

With `CC(C)[C@H](NC(=O)[C@H](Cc1c[nH]c2ccccc12)NC(=O)CNC(=O)[C@H](CCCNC(=N)N)NC(=O)[C@H](Cc1c[nH]c2ccccc12)NC(=O)[C@@H](N)Cc1c[nH]cn1)C(=O)NCC(=O)N[C@@H](C)C(=O)N[C@@H](CCCCNC(=O)CCCC[C@@H]1SC[C@@H]2NC(=O)N[C@@H]21)C(=O)N[C@@H](CO)C(=O)N[C@@H](CCCCN)C(=O)NCC(=O)O` [FcL1], the binding to bevacizumab result in the data set on bevacizumab was “shown to bind”. Further, in the data set on panitumumab, the binding to panitumumab entry is on record as “shown to bind”. Further, the “binding to anti-sFRP2” value with anti-sFRP2 is reported as “shown to bind”. The “binding to Fc-Noggin” value on Fc-Noggin is “shown to bind”.

Turning to (CFHH)2KGAKSKG [FcL2], the binding to bevacizumab result in the data set on bevacizumab is listed as “demonstrated binding only to anti-sFRP2”. For the same molecule, in the data set with panitumumab, the binding to panitumumab entry was “demonstrated binding only to anti-sFRP2”. The “binding to anti-sFRP2” value in the data set on anti-sFRP2 was “demonstrated binding only to anti-sFRP2”. For the same molecule, the “binding to Fc-Noggin” value on Fc-Noggin is “demonstrated binding only to anti-sFRP2”.

On to “bevacizumab: antibody against VEGF; Research Grade Bevacizumab Biosimilar”, for which the “controlled release from HAKT-gel” value in data set [1] (FcL-1 at 100-fold molar excess vs no peptide, 37° C., 7 days) is “confirmed controlled release”. Further, the cumulative release is 60% in data set [1] (from HAKT-FcL1-oxime) and “approximately 100%” in data set [1] (from HAKT-oxime (no peptide)).

The record behind these values is patent publication US20230364025A1, “PROTEIN-RELEASE SYSTEM FOR SUSTAINED RELEASE OF PROTEINS” (THE GOVERNING COUNCIL OF THE UNIVERSITY OF TORONTO, priority 2022, published 2023).
